Reference: ChEMBL document CHEMBL1629642, “In vitro efficacy of ST246 against smallpox and monkeypox” (Antimicrob Agents Chemother, 2009)
pEC50: −log10 of the molar value. The source made the active and inactive calls.

Assays:
[1] = system: Variola virus; assay: Antiviral activity against Variola virus BSH74-sol infected in african green monkey BSC-40 cells at 0.05 to 0.5 uM by IHC staining-based comet tail reduction assay; type: functional, organism-based
[2] = system: Monkeypox virus; assay: Antiviral activity against Monkeypox virus 2003-USA-039 infected in african green monkey BSC-40 cells at 0.05 to 0.5 uM by IHC staining-based comet tail reduction assay; type: functional, organism-based
[3] = system: Variola virus; assay: Antiviral activity against Variola virus SLN68-258 infected in african green monkey BSC-40 cells at 0.015 uM by IHC staining-based comet tail reduction assay; type: functional, organism-based
[4] = system: Monkeypox virus; assay: Antiviral activity against Monkeypox virus V78-I-3945 infected in african green monkey BSC-40 cells at 0.015 uM by IHC staining-based comet tail reduction assay; type: functional, organism-based
[5] = system: Variola virus; assay: Antiviral activity against Variola virus SLN68-258 infected in african green monkey BSC-40 cells at 0.005 uM by IHC staining-based comet tail reduction assay; type: functional, organism-based
[6] = system: Variola virus; assay: Antiviral activity against Variola virus NEP73-175 infected in african green monkey BSC-40 cells at 0.005 uM by IHC staining-based comet tail reduction assay; type: functional, organism-based
[7] = system: Monkeypox virus; assay: Antiviral activity against Monkeypox virus V81-I-179 infected in african green monkey BSC-40 cells assessed as reduction in viral plaque formation at 0.015 uM uM by IHC staining-based plaque reduction assay; type: functional
[8] = system: Variola virus; assay: Antiviral activity against Variola virus SOM77-ali infected in african green monkey BSC-40 cells at 0.005 uM by IHC staining-based comet tail reduction assay; type: functional, organism-based
[9] = system: Monkeypox virus; assay: Antiviral activity against Monkeypox virus V81-I-179 infected in african green monkey BSC-40 cells at 0.005 uM by IHC staining-based comet tail reduction assay; type: functional, organism-based
[10] = system: Monkeypox virus; assay: Antiviral activity against Monkeypox virus V77-I-823 infected in african green monkey BSC-40 cells at 0.005 uM by IHC staining-based comet tail reduction assay; type: functional, organism-based
[11] = system: Variola virus; assay: Antiviral activity against Variola virus SUD47-juba infected in african green monkey BSC-40 cells at 0.005 uM uM by IHC staining-based plaque reduction assay; type: functional, organism-based
[12] = system: Variola virus; assay: Antiviral activity against Variola virus BSH74-sol infected in african green monkey BSC-40 cells at 0.005 uM uM by IHC staining-based plaque reduction assay; type: functional, organism-based
[13] = system: Variola virus; assay: Antiviral activity against Variola virus NEP73-175 infected in african green monkey BSC-40 cells at 0.005 uM uM by IHC staining-based plaque reduction assay; type: functional, organism-based
[14] = system: Variola virus; assay: Antiviral activity against Variola virus SUD47-juba infected in african green monkey BSC-40 cells at 0.05 to 5 uM assessed as reduction in virus-induced cytopathic effect; type: functional, organism-based
[15] = system: Variola virus; assay: Antiviral activity against Variola virus SOM77-ali infected in african green monkey BSC-40 cells at 0.005 uM uM by IHC staining-based plaque reduction assay; type: functional, organism-based
[16] = system: Monkeypox virus; assay: Antiviral activity against Monkeypox virus V81-I-179 infected in african green monkey BSC-40 cells at 0.005 uM uM by IHC staining-based plaque reduction assay; type: functional, organism-based
[17] = system: Monkeypox virus; assay: Antiviral activity against Monkeypox virus 2003-USA-039 infected in african green monkey BSC-40 cells at 0.005 uM uM by IHC staining-based plaque reduction assay; type: functional, organism-based
[18] = system: Variola virus; assay: Antiviral activity against Variola virus SLN68-258 infected in african green monkey BSC-40 cells at 0.05 to 0.5 uM by IHC staining-based comet tail reduction assay; type: functional, organism-based
[19] = system: Monkeypox virus; assay: Antiviral activity against Monkeypox virus V78-I-3945 infected in african green monkey BSC-40 cells assessed as reduction in virus-induced cytopathic effect at 0.05 to 5 uM; type: functional, organism-based
[20] = system: Monkeypox virus; assay: Antiviral activity against Monkeypox virus 2003-USA-039 infected in african green monkey BSC-40 cells assessed as reduction in virus-induced cytopathic effect at 0.05 to 5 uM; type: functional, organism-based
[21] = system: Monkeypox virus; assay: Antiviral activity against Monkeypox virus V77-I-823 infected in african green monkey BSC-40 cells assessed as reduction in virus-induced cytopathic effect at 0.05 to 5 uM; type: functional, organism-based
[22] = system: Monkeypox virus; assay: Antiviral activity against Monkeypox virus V1979-I-005 infected in african green monkey BSC-40 cells assessed as reduction in virus-induced cytopathic effect at 0.05 to 5 uM; type: functional, organism-based
[23] = system: Variola virus; assay: Antiviral activity against Variola virus BRZ66-39 infected in african green monkey BSC-40 cells at 0.015 uM assessed as reduction in virus-induced cytopathic effect; type: functional, organism-based
[24] = system: Variola virus; assay: Antiviral activity against Variola virus SLN68-258 infected in african green monkey BSC-40 cells at 0.015 uM assessed as reduction in virus-induced cytopathic effect; type: functional, organism-based
[25] = system: Variola virus; assay: Antiviral activity against Variola virus SOM77-ali infected in african green monkey BSC-40 cells at 0.015 uM assessed as reduction in virus-induced cytopathic effect; type: functional, organism-based
[26] = system: Monkeypox virus; assay: Antiviral activity against Monkeypox virus V1979-I-005 infected in african green monkey BSC-40 cells assessed as reduction in virus-induced cytopathic effect at 0.015 uM; type: functional, organism-based
[27] = system: Variola virus; assay: Antiviral activity against Variola virus BRZ66-39 infected in african green monkey BSC-40 cells at 0.005 uM assessed as reduction in virus-induced cytopathic effect; type: functional, organism-based
[28] = system: Monkeypox virus; assay: Antiviral activity against Monkeypox virus V1979-I-005 infected in african green monkey BSC-40 cells assessed as reduction in virus-induced cytopathic effect at 0.005 uM; type: functional, organism-based
[29] = system: Cowpox virus; assay: Antiviral activity against Cowpox virus infected in african green monkey Vero cells assessed as reduction in virus-induced cytopathic effect; type: functional, organism-based
[30] = system: Monkeypox virus; assay: Antiviral activity against Monkeypox virus 2003-USA-039 infected in african green monkey BSC-40 cells assessed as reduction in virus-induced cytopathic effect; type: functional, organism-based; settings: 2003-USA-039, BSC-40
[31] = system: Variola virus; assay: Antiviral activity against Variola virus SOM77-ali infected in african green monkey BSC-40 cells at 0.05 to 0.5 uM by IHC staining-based plaque reduction assay; type: functional, organism-based
[32] = system: Monkeypox virus; assay: Antiviral activity against Monkeypox virus V81-I-179 infected in african green monkey BSC-40 cells at 0.05 to 0.5 uM by IHC staining-based plaque reduction assay; type: functional, organism-based
[33] = system: Monkeypox virus; assay: Antiviral activity against Monkeypox virus 2003-USA-039 infected in african green monkey BSC-40 cells at 0.05 to 0.5 uM by IHC staining-based plaque reduction assay; type: functional, organism-based
[34] = system: Monkeypox virus; assay: Antiviral activity against Monkeypox virus V77-I-823 infected in african green monkey BSC-40 cells at 0.05 to 0.5 uM by IHC staining-based plaque reduction assay; type: functional, organism-based
[35] = system: Variola virus; assay: Antiviral activity against Variola virus BSH74-sol infected in african green monkey BSC-40 cells assessed as reduction in viral plaque formation at 0.015 uM uM by IHC staining-based plaque reduction assay; type: functional
[36] = system: Variola virus; assay: microbe, parasite or virus in culture; settings: BRZ66-39, BSC-40
[37] = system: Variola virus; assay: microbe, parasite or virus in culture; settings: SLN68-258, BSC-40

O=C(NN1C(=O)[C@@H]2[C@@H]3C=C[C@@H]([C@H]4C[C@@H]34)[C@@H]2C1=O)c1ccc(C(F)(F)F)cc1 [TECOVIRIMAT]
7.17: pEC50 [36]
active: Activity [1] | Activity [2] | Activity [3] | Activity [4] | Activity [14] | Activity [18] | Activity [19] | Activity [20] | Activity [21] | Activity [22] | Activity [23] | Activity [24] | Activity [25] | Activity [26] | Activity [29] | Activity [31] | Activity [32] | Activity [33] | Activity [34]
inactive: Activity [5] | Activity [6] | Activity [8] | Activity [9] | Activity [10] | Activity [11] | Activity [12] | Activity [13] | Activity [15] | Activity [16] | Activity [17] | Activity [27] | Activity [28]
7.44: pEC50 [30]
50%: inhibition (INH) [7] | inhibition (INH) [35]
7.43: pEC50 [37]
